In patent US9089640B2, “Apparatus and kit for encapsulating at least one compound for therapeutic and/or diagnostic use in erythrocytes” (ERYDEL S.p.A., priority 2010, dated 2015):

Test system: autologous IgGs
Experiment: Recognition of treated erythrocytes by autologous IgGs (targeting to macrophages)
Format: cell-based
Description: The targeting to macrophages of erythrocytes containing drugs and/or contrast means can be achieved by the apparatus shown in the figure following a procedure similar to that used in example 1. When fludarabine was used as an encapsulating agent, a final concentration of 0.8 mM was obtained. The erythrocytes treated in this way were recognised by autologous IgGs in percentages over 80% the total number of processed cells.

Nc1nc(F)nc2c1ncn2[C@@H]1O[C@H](CO)[C@@H](O)[C@@H]1O [fludarabine]
Treated erythrocytes recognised by autologous IgGs, percentage of total number of processed cells: over 80%
